In ChEMBL document CHEMBL1201862, “PubChem BioAssay data set” (2004):
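Briefly, cells in 96-well plates were exposed to five compound concentrations for 48 h, and endpoints were estimated by linear interpolation. GI50 marks 50% less growth.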 The source made the active and inactive calls. Rule as the data show it: active = GI50 up to about 1.1 µM and inactive = higher.

Columns and labels:
Experiment in all cases: inhibition of tumour cell growth, NCI panel, 48 h
CAKI-1 = system: CAKI-1
DU-145 = system: DU-145
HCC 2998 = system: HCC 2998
HL-60 = system: HL-60
KM12 = system: KM12
M14 = system: M14
MDA-MB-231 = system: MDA-MB-231
NCI-H23 = system: NCI-H23
OVCAR-3 = system: OVCAR-3
OVCAR-8 = system: OVCAR-8
PC-3 = system: PC-3
RXF 393 = system: RXF 393
SF-295 = system: SF-295
SK-MEL-2 = system: SK-MEL-2
SK-MEL-5 = system: SK-MEL-5
SR = system: SR
SW-620 = system: SW-620
UACC-62 = system: UACC-62
HCT-116 = system: HCT-116
HOP-92 = system: HOP-92

Compound	GI50 (CAKI-1)	GI50 (DU-145)	GI50 (HCC 2998)	GI50 (HL-60)	GI50 (KM12)	GI50 (M14)	GI50 (MDA-MB-231)	GI50 (NCI-H23)	GI50 (OVCAR-3)	GI50 (OVCAR-8)	GI50 (PC-3)	GI50 (RXF 393)	GI50 (SF-295)	GI50 (SK-MEL-2)	GI50 (SK-MEL-5)	GI50 (SR)	GI50 (SW-620)	GI50 (UACC-62)	GI50 (HCT-116)	GI50 (HOP-92)
O=C1N=C(SC2OC(CO)C(O)C(O)C2O)S/C1=C\c1ccccc1 (stereo not given)	> 100 µM (inactive)	> 100 µM (inactive)	> 100 µM (inactive)	> 100 µM (inactive)	> 100 µM (inactive)	> 100 µM (inactive)	> 100 µM (inactive)	> 100 µM (inactive)	> 100 µM (inactive)	> 100 µM (inactive)	> 100 µM (inactive)	25.6 µM (inactive)	> 100 µM (inactive)	> 100 µM (inactive)	> 100 µM (inactive)	> 100 µM (inactive)	> 100 µM (inactive)	> 100 µM (inactive)	–	–
C=C(Cl)C(Cl)(CBr)CCC(Br)C(C)(C)Br (stereo not given)	2.47 µM (inactive)	3.97 µM (inactive)	5.75 µM (inactive)	2.19 µM (inactive)	1.38 µM (inactive)	16.3 µM (inactive)	11.9 µM (inactive)	14.2 µM (inactive)	2.93 µM (inactive)	4.3 µM (inactive)	2.31 µM (inactive)	1.8 µM (inactive)	2 µM (inactive)	–	16.6 µM (inactive)	13.4 µM (inactive)	3 µM (inactive)	9.93 µM (inactive)	1.74 µM (inactive)	2.76 µM (inactive)
COc1ccc2cc(C(=O)CCC(=O)O)ccc2c1	> 100 µM (inactive)	> 100 µM (inactive)	–	> 100 µM (inactive)	> 100 µM (inactive)	> 100 µM (inactive)	> 100 µM (inactive)	> 100 µM (inactive)	> 100 µM (inactive)	> 100 µM (inactive)	> 100 µM (inactive)	> 100 µM (inactive)	> 100 µM (inactive)	> 100 µM (inactive)	> 100 µM (inactive)	> 100 µM (inactive)	> 100 µM (inactive)	> 100 µM (inactive)	> 100 µM (inactive)	> 100 µM (inactive)
CCCCOc1ccc(NC(=N)Nc2ccc(Cl)cc2)cc1	–	0.462 µM (active)	0.358 µM (active)	6.49 µM (inactive)	12.5 µM (inactive)	3.66 µM (inactive)	13.2 µM (inactive)	1.09 µM (active)	10.2 µM (inactive)	11.2 µM (inactive)	2.06 µM (inactive)	11.5 µM (inactive)	2.3 µM (inactive)	2.64 µM (inactive)	0.284 µM (active)	3.38 µM (inactive)	1.03 µM (active)	12.3 µM (inactive)	0.421 µM (active)	2.58 µM (inactive)
COC(=O)c1nc(Cl)nc(Cl)c1Cl	18.2 µM (inactive)	70.3 µM (inactive)	22 µM (inactive)	–	22.2 µM (inactive)	20.7 µM (inactive)	17.6 µM (inactive)	44.7 µM (inactive)	2.02 µM (inactive)	21 µM (inactive)	14.4 µM (inactive)	14.4 µM (inactive)	42.3 µM (inactive)	–	18.3 µM (inactive)	15.1 µM (inactive)	16.2 µM (inactive)	> 10 µM (inactive)	18.2 µM (inactive)	19.4 µM (inactive)
Fc1ccc2nc3n(c2c1)C(c1c(Cl)cccc1Cl)SC3 (stereo not given)	> 100 µM (inactive)	> 100 µM (inactive)	> 100 µM (inactive)	–	> 100 µM (inactive)	> 100 µM (inactive)	> 100 µM (inactive)	> 100 µM (inactive)	> 100 µM (inactive)	> 100 µM (inactive)	> 100 µM (inactive)	> 100 µM (inactive)	> 100 µM (inactive)	> 100 µM (inactive)	> 100 µM (inactive)	4.3 µM (inactive)	> 100 µM (inactive)	> 100 µM (inactive)	> 100 µM (inactive)	50.4 µM (inactive)
COc1cccc2c(NNc3ccccc3)c3ccc([N+](=O)[O-])cc3nc12	12 µM (inactive)	73.6 µM (inactive)	32.7 µM (inactive)	–	11.6 µM (inactive)	24 µM (inactive)	43.6 µM (inactive)	20.5 µM (inactive)	50.2 µM (inactive)	31.1 µM (inactive)	14.7 µM (inactive)	48.9 µM (inactive)	27.5 µM (inactive)	25.8 µM (inactive)	37.6 µM (inactive)	18.7 µM (inactive)	24.9 µM (inactive)	6.41 µM (inactive)	22.8 µM (inactive)	26.4 µM (inactive)
COc1cc(/C=C/C(=O)OC2C(O)C3CC(OC(=O)c4cc(OC)c(OC)c(OC)c4)CC2N3C)cc(OC)c1OC (stereo not given)	27 µM (inactive)	> 50 µM (inactive)	15 µM (inactive)	–	25.3 µM (inactive)	> 50 µM (inactive)	16.1 µM (inactive)	> 50 µM (inactive)	8.02 µM (inactive)	12.5 µM (inactive)	35.6 µM (inactive)	15.9 µM (inactive)	23.4 µM (inactive)	47.1 µM (inactive)	16.5 µM (inactive)	10.1 µM (inactive)	16 µM (inactive)	> 50 µM (inactive)	20.7 µM (inactive)	9.77 µM (inactive)
O=C(O)/C(Cc1c[nH]nn1)=N\O	> 100 µM (inactive)	> 100 µM (inactive)	–	> 100 µM (inactive)	> 100 µM (inactive)	> 100 µM (inactive)	> 100 µM (inactive)	> 100 µM (inactive)	> 100 µM (inactive)	> 100 µM (inactive)	> 100 µM (inactive)	> 100 µM (inactive)	> 100 µM (inactive)	> 100 µM (inactive)	> 100 µM (inactive)	> 100 µM (inactive)	> 100 µM (inactive)	> 100 µM (inactive)	> 100 µM (inactive)	> 100 µM (inactive)
Cc1c(CCCl)c(N=[N+]=[N-])n2c(nc3ccccc32)c1C#N	1.39 µM (inactive)	2.24 µM (inactive)	–	0.348 µM (active)	1.66 µM (inactive)	1.25 µM (inactive)	1.42 µM (inactive)	1.41 µM (inactive)	1.39 µM (inactive)	1.7 µM (inactive)	1.42 µM (inactive)	1.4 µM (inactive)	1.67 µM (inactive)	1.48 µM (inactive)	0.491 µM (active)	0.311 µM (active)	0.355 µM (active)	1.34 µM (inactive)	0.498 µM (active)	1.25 µM (inactive)
OCC1OC(c2n[nH]c3c(O)ncnc23)C(O)C1O (stereo not given)	6.81 µM (inactive)	1.48 µM (inactive)	18.7 µM (inactive)	3.02 µM (inactive)	16.7 µM (inactive)	5.48 µM (inactive)	3.66 µM (inactive)	32.4 µM (inactive)	9.18 µM (inactive)	4.11 µM (inactive)	6.68 µM (inactive)	58.6 µM (inactive)	33.1 µM (inactive)	–	21.5 µM (inactive)	27.7 µM (inactive)	4.17 µM (inactive)	31.6 µM (inactive)	7.28 µM (inactive)	–
CC(C)NC(=O)OCc1c2c(n(C)c1COC(=O)NC(C)C)-c1cc(Cl)c(Cl)cc1CC2	–	70.8 µM (inactive)	14.9 µM (inactive)	–	30.6 µM (inactive)	27.9 µM (inactive)	15.5 µM (inactive)	22.1 µM (inactive)	29.1 µM (inactive)	31 µM (inactive)	32.9 µM (inactive)	21.7 µM (inactive)	46.5 µM (inactive)	25.2 µM (inactive)	42.7 µM (inactive)	> 100 µM (inactive)	45.7 µM (inactive)	43.9 µM (inactive)	24.8 µM (inactive)	19.5 µM (inactive)
CC1(C)C2CCC1(C)C(NC(=O)COCCOCC(N)=O)C2 (stereo not given)	> 100 µM (inactive)	> 100 µM (inactive)	45 µM (inactive)	56.2 µM (inactive)	> 100 µM (inactive)	> 100 µM (inactive)	> 100 µM (inactive)	> 100 µM (inactive)	> 100 µM (inactive)	> 100 µM (inactive)	> 100 µM (inactive)	63.7 µM (inactive)	> 100 µM (inactive)	–	> 100 µM (inactive)	31.1 µM (inactive)	> 100 µM (inactive)	> 100 µM (inactive)	> 100 µM (inactive)	> 100 µM (inactive)
CCOC(=O)c1ccc(Nc2cnc3cc(C(F)(F)F)ccc3n2)cc1	> 100 µM (inactive)	> 100 µM (inactive)	> 100 µM (inactive)	> 100 µM (inactive)	85.1 µM (inactive)	–	> 100 µM (inactive)	> 100 µM (inactive)	> 100 µM (inactive)	> 100 µM (inactive)	> 100 µM (inactive)	> 10 µM (inactive)	> 100 µM (inactive)	–	> 100 µM (inactive)	> 100 µM (inactive)	> 100 µM (inactive)	> 100 µM (inactive)	63 µM (inactive)	> 100 µM (inactive)
CCC1c2[nH]c3ccccc3c2C[C@H]2C(=O)NC(COC(C)(C)C)C(=O)N12 (stereo not given in full)	44.9 µM (inactive)	67.6 µM (inactive)	–	21.3 µM (inactive)	27.9 µM (inactive)	30.1 µM (inactive)	36.9 µM (inactive)	32.9 µM (inactive)	32 µM (inactive)	39.4 µM (inactive)	28.5 µM (inactive)	55.5 µM (inactive)	19.4 µM (inactive)	32.8 µM (inactive)	27.8 µM (inactive)	31.3 µM (inactive)	69 µM (inactive)	53.3 µM (inactive)	41.6 µM (inactive)	21.2 µM (inactive)
